Measured values published in patent US20120052010A1, “IMAGING TUMOR PERFUSION, OXIDATIVE […] DYNAMIC ACE PET IN PATIENTS WITH HEAD AND NECK CANCER DURING RADIOTHERAPY” (GE HEALTHCARE LIMITED, priority 2009, published 2012).
Values joined by “and” are separate entries in the source; they are usually repeats but may differ in a detail not shown here. Equal entries are not always repeated.

Columns and labels:
[1] = resting normal volunteers, myocardial O2 consumption 3-4 micromole/min/gram; cited from earlier work
[2] = test system: primary tumor, squamous cell carcinoma of the head and neck; assay: Dynamic ACE PET, tumor perfusion (absolute extraction rate and relative perfusion index rF); format: in vivo, human
Procedure: In a subset of ACE scan sessions (n=23) an image-derived arterial input function for absolute quantification of tumor perfusion was acquired by dynamic imaging of the heart immediately after injection of a 0.5 MBq/kg body weight ACE bolus.
(§1) Ten minutes after the heart scan, the head and neck region was imaged immediately after an intravenous bolus injection of 10 MBq/kg body weight ACE. The scan time was 32 minutes with time frames 12×5 seconds (s), 6×10 s, 4×30 s, 4×60 s, 2×120 s and […].
The arterial blood input function was derived by placing a small ROI in the left ventricular cavity of the heart scan to obtain a TAC of the first pass of the bolus. Arterial blood activities were integrated by the area-under-the-curve of the first bolus passage through the chamber and normalized to the injected dose of the subsequent tumor scan.
The peak activity of the primary tumor deposited at the end of the first bolus pass was assessed. The absolute extraction rate (in mL/min/mL tissue) was calculated by dividing the first-pass peak tumor activity by the arterial blood integral, assuming that systemic circulation was unaltered between the heart and tumor scan. As the arterial input was not obtained in all sessions, a relative perfusion index (rF) was quantified by the ratio of initial peak retention in the tumor to that of the cerebellum. […] Absolute quantification of tumor perfusion in 23 scans yielded a mean of 0.47±0.01 mL/min/mL The mean of simultaneous rF measurements was 5.87±0.39 and the two methods were linearly correlated (r=0.57, p=0.005).

[3] = test system: primary tumor, squamous cell carcinoma of the head and neck; assay: Dynamic ACE PET, tumor clearance rate of [11C] (tumor oxidative metabolism, OXm); format: in vivo, human
Procedure: Twenty nine dynamic ACE PET scans were performed in the nine patients. Five patients were scanned with a dedicated PET device (Siemens ECAT HR^+, Knoxyille, Tenn., USA) and PET images were coregistered to dose-planning CT images for anatomical localization. Four patients were scanned with a hybrid PET-CT device (GE Discovery ST, Milwaukee, Wis., USA). ACE PET was studied in all patients within 7 days before the start of radiotherapy (baseline). Due to logistic problems not all patients could be scanned at all subsequent time points. Five patients were scanned after a mean dose of 15 Gy (dose range 9.6-20Gy), 7 patients after a mean dose of 30 Gy (range 24-37Gy) and 8 patients after a mean dose of 55 Gy (range 42-68Gy).
as §1
Primary tumors were clearly visualized in all scans. A time-activity curve (TAC) of the primary tumor was obtained from a region of interest (ROI) delineating the highest uptake in all ACE scans. TACs were analyzed by fitting an exponential curve to the data collected between 4 and 32 min Tumor oxidative metabolism was derived from the below equation.
where Y is the tumor radioactivity (Bq/cc), A is a constant, t is time (min), and OXm is the clearance rate of [^11C] in min^−1. The average R^2 of the fit was 0.93.

[4] = test system: primary tumor, squamous cell carcinoma of the head and neck; assay: FDG-PET tumor glucose uptake (Tglu); format: in vivo, human
Procedure: FDG-PET was performed at baseline using a standard clinical whole-body protocol, in which the head and neck area was scanned one hour after intravenous injection of 5 MBq/kg body weight FDG. Baseline ACE and FDG scans were performed on the same or adjacent days.
Whole-body scanning was performed one hour after intravenous injection of 5 MBq/kg body weight FDG. Six patients were examined by PET/CT and four patients were studied by PET alone. The patients were instructed to remain recumbent and avoid voicing and other uses of neck muscles during the uptake period.
Tumor glucose uptake (Tglu) was measured from the FDG data as standard uptake values (SUV), determined by the radioactivity concentration of the tumor ROI, divided by injected activity per gram body weight.

SMILES: C[11C](=O)O [ACE, 1-[^11C]-Acetate]
- OXm values in myocardium [1]: 0.05 to 0.07 min⁻¹
- mean of simultaneous rF measurements ([2]; 23 scans with absolute quantification): 5.87±0.39
- absolute quantification of tumor perfusion (absolute ACE extraction rate), mean ([2]; 23 scans, arterial input from left ventricular blood pool imaging): 0.47 mL/min/mL and 0.47±0.01 mL/min/mL
- rF, Mean ± SE ([2]; CR group, 15 Gy): 7.87
- rF, Mean ± SE ([2]; CR group, 30 Gy): 7.29
- rF, Mean ± SE ([2]; CR group, 55 Gy): 5.00
- rF, Mean ± SE ([2]; CR group, Baseline): 5.68
- rF, Mean ± SE ([2]; PR group, 30 Gy): 6.61
- rF, Mean ± SE ([2]; PR group, 55 Gy): 4.51
- rF, Mean ± SE ([2]; PR group, Baseline): 6.42
- extraction rate in cerebellum (reference region) ([2]; all patients): 0.08±0.03 mL/min/mL
- primary tumor rF (relative perfusion) ([2]; individual patients (CR and PR), 15 Gy): 6.93 and 5.00 and 8.22 and 7.07 and 9.25
- primary tumor rF (relative perfusion) ([2]; individual patients (CR and PR), 30 Gy): 8.51 and 7.39 and 8.48 and 3.95 and 8.06 and 6.54 and 6.05
- primary tumor rF (relative perfusion) ([2]; individual patients (CR and PR), 55 Gy): 5.78 and 5.00 and 6.34 and 2.20 and 2.81 and 7.76 and 3.64
- primary tumor rF (relative perfusion, tumor/cerebellum initial peak retention) ([2]; individual patients (CR and PR), Baseline): 4.10 and 7.63 and 6.47 and 5.17 and 6.26 and 4.90 and 3.96 and 5.91 and 8.93
- OXm, Mean ± SE ([3]; CR group, 15 Gy, N=4): 0.0142 min⁻¹
- OXm, Mean ± SE ([3]; CR group, 30 Gy, N=4): 0.0144 min⁻¹
- OXm, Mean ± SE ([3]; CR group, 55 Gy, N=5): 0.0140 min⁻¹
- OXm, Mean ± SE ([3]; CR group, Baseline, N=6): 0.0122 min⁻¹
- OXm, Mean ± SE ([3]; PR group, 30 Gy, N=3): 0.0126 min⁻¹
- OXm, Mean ± SE ([3]; PR group, 55 Gy, N=3): 0.0110 min⁻¹
- OXm, Mean ± SE ([3]; PR group, Baseline, N=3): 0.0065 min⁻¹

SMILES: OC[C@H]1OC(O)[C@H]([18F])[C@@H](O)[C@@H]1O (stereo partly drawn) [FDG, ^18F-fluoro-2-deoxy-D-glucose]
- Tglu (tumor glucose uptake, standard uptake value) ([4]; individual patients, baseline FDG-PET, one hour after i.v. 5 MBq/kg FDG): 4.6 SUV and 13.4 SUV and 8.5 SUV and 6.8 SUV and 4.9 SUV and 16.3 SUV and 13.8 SUV and 3.9 SUV and 26.1 SUV
- Tglu, all primary tumors ([4]; nine patients, baseline): 10.9±2.4 SUV
